Laboratory results published in patent publication US20230058171A1, “NEW ORAL PHARMACEUTICAL COMPOSITION FOR CANCER THERAPY” (BOEHRINGER INGELHEIM INTERNATIONAL GMBH, priority 2021, published 2023).

Legend:
[1] = test system: advanced or metastatic solid tumors; assay: Trial 1403-0001 efficacy: tumor response according to RECIST1.1; assay type: in vivo, human; conditions: for Best overall response / days of exposure to the MDM2i of formula I: MDM2 AMPL
Text: Trial 1403-0001 was a first in human Phase Ia/Ib, open label, multicenter, dose-escalation study of the MDM2-antagonist of formula I in patients with advanced or metastatic solid tumors. The Phase Ia dose escalation part aimed to define the Maximum Tolerated Dose (MTD) and the Recommended Dose for Expansion (RDE) for the MDM2-antagonist of formula I based on safety and tolerability, pharmacokinetics, pharmacodynamics, and preliminary efficacy. The RDE will be further explored in the Phase Ib expansion part of the trial.
15 patients in Arm B experienced a stable disease in arm B (representing 60% of all treated patients).
A treatment with a drug candidate (here the MDM2-antagonist of formula I) leading to a “PARTIAL RESPONSE (PR)” is defined by a ≥30% decrease in the sum of diameters of target lesions, taking as reference the sum of diameters of the target lesions prior to treatment (=baseline sum of diameters) according to the RECIST1.1 criteria (Eisenhauer et al, Eur. J. Canc. (2009), Vol. 45, pp. 228-247).
A treatment with a drug candidate (here the MDM2-antagonist of formula I) leading to a “PROGRESSIVE DISEASE (PD)” is defined by a ≥20% increase in the sum of diameters of target lesions, taking as reference the smallest sum of diameters of target lesions on study (including the baseline sum of diameters if that is the smallest sum of diameters of target lesions on study) according to the RECIST1.1 criteria (Eisenhauer et al, Eur. J. Canc. (2009), Vol. 45, pp. 228-247).
A treatment with a drug candidate (here the MDM2-antagonist of formula I) leading to a “STABLE DISEASE (SD)” is defined by neither sufficient shrinkage to qualify for PR nor sufficient increase to qualify for PD, taking as reference the smallest sum of diameters of the target lesions on study (including the baseline sum of diameters if that is the smallest sum of diameters on study) according to the RECIST1.1 criteria (Eisenhauer et al, Eur. J. Canc. (2009), Vol. 45, pp. 228-247).

tumors = assay: Trial 1403-0002 combination with ezabenlimab (and anti-LAG3-1): tumor response; assay type: in vivo, human
[2] = Arm A patient 1392001001, WD LPS, 20 mg D1q3w
[3] = Arm A patient 1392001006, DDLPS, 50 mg D1q3w
[4] = Arm A patient 1840003004, DDLPS, 60 mg D1q3w, no prior therapy
[5] = Arm A patient 1840003006, DDLPS, 50 mg D1q3w
[6] = Arm A patient 1840003008, DDLPS, 60 mg D1q3w
[7] = Arm B patient 1392001005, DDLPS, 15/15 mg D1D8q4w
[8] = Arm B patient 1392001007, DDLPS, 30/30 mg D1D8q4w
[9] = Arm B patient 1392001009, WD LPS, 60/60 mg D1D8q4w
[10] = Arm B patient 1840002005, DDLPS, 20/20 mg D1D8q4w, no prior therapy
[11] = Arm B patient 1840003009, DDLPS, 45/45 mg D1D8q4w
[12] = Arm B patient 1840003010, DDLPS, 45/45 mg D1D8q4w
[13] = Arm B patient 1840003011, WD LPS, 30/30 mg D1D8q4w
[14] = Arm B patient 1840003014, WD LPS, 45/45 mg D1D8q4w
[15] = triple combination (11 treated)

SMILES: Cc1c(C(=O)O)ccc2c3n(nc12)[C@@H]1[C@H](C3)N(CC2CC2)[C@@]2(C(=O)Nc3cc(Cl)ccc32)[C@H]1c1cccc(Cl)c1F [MDM2-antagonist of formula I, (2′S,3′S,3a'S,10a'S)-6-chloro-3′-(3-chloro-2-fluorophenyl)-1′-(cyclopropylmethyl)-6′-methyl-2-oxo-1,2,3′,3a′,10′,10a′-hexahydro-1′H-spiro[indole-3,2′-pyrrolo[2′,3′:4,5]pyrrolo[1,2-b]indazole]-7′-carboxylic acid]
- Best overall response [1, 2]: PR (PR, tumor shrinkage of at least −30%)
- days of exposure to the MDM2i of formula I [1, 2]: 778 days
- Best overall response [1, 3]: SD (SD, tumor growth modification between +20% and −30%)
- days of exposure to the MDM2i of formula I [1, 3]: 107 days
- Best overall response ([1]; Arm A patient 1392001011, WDLPS, 80 mg D1q3w): PR (PR, tumor shrinkage of at least −30%)
- days of exposure to the MDM2i of formula I ([1]; Arm A patient 1392001011, WDLPS, 80 mg D1q3w, ongoing): 228 days
- Best overall response ([1]; Arm A patient 1840002004, DDLPS, 45 mg D1q3w): SD (SD, tumor growth modification between +20% and −30%)
- days of exposure to the MDM2i of formula I ([1]; Arm A patient 1840002004, DDLPS, 45 mg D1q3w, third line): 353 days
- Best overall response [1, 4]: SD (SD, tumor growth modification between +20% and −30%)
- days of exposure to the MDM2i of formula I [1, 4]: 342 days
- Best overall response [1, 5]: SD (SD, tumor growth modification between +20% and −30%)
- days of exposure to the MDM2i of formula I [1, 5]: 85 days
- Best overall response [1, 6]: SD (SD, tumor growth modification between +20% and −30%)
- days of exposure to the MDM2i of formula I [1, 6]: 57 days
- Best overall response ([1]; Arm A patient 1840003013, WDLPS, 80 mg D1q3w): SD (SD, tumor growth modification between +20% and −30%)
- days of exposure to the MDM2i of formula I ([1]; Arm A patient 1840003013, WDLPS, 80 mg D1q3w, ongoing): 214 days
- Best overall response ([1]; Arm A patient 1846002602, DDLPS, 45 mg D1q3w): SD (SD, tumor growth modification between +20% and −30%)
- days of exposure to the MDM2i of formula I ([1]; Arm A patient 1846002602, DDLPS, 45 mg D1q3w, second line): 709 days
- tumor shrinkage ([1]; Arm A patient with p53-wildtype MDM2-amplified biliary adenocarcinoma, partial response): 54%
- Best overall response [1, 7]: SD (SD, tumor growth modification between +20% and −30%)
- days of exposure to the MDM2i of formula I [1, 7]: 491 days
- Best overall response [1, 8]: SD (SD, tumor growth modification between +20% and −30%)
- days of exposure to the MDM2i of formula I [1, 8]: 218 days
- Best overall response [1, 9]: SD (SD, tumor growth modification between +20% and −30%)
- days of exposure to the MDM2i of formula I [1, 9]: 105 days
- Best overall response [1, 10]: SD (SD, tumor growth modification between +20% and −30%)
- days of exposure to the MDM2i of formula I [1, 10]: 542 days
- Best overall response [1, 11]: SD (SD, tumor growth modification between +20% and −30%)
- days of exposure to the MDM2i of formula I [1, 11]: 274 days
- Best overall response [1, 12]: SD (SD, tumor growth modification between +20% and −30%)
- days of exposure to the MDM2i of formula I [1, 12]: 64 days
- Best overall response [1, 13]: SD (SD, tumor growth modification between +20% and −30%)
- days of exposure to the MDM2i of formula I [1, 13]: 100 days
- Best overall response ([1]; Arm B patient 1840003012, WD LPS, 60/60 mg D1D8q4w): PR (PR, tumor shrinkage of at least −30%)
- days of exposure to the MDM2i of formula I ([1]; Arm B patient 1840003012, WD LPS, 60/60 mg D1D8q4w, ongoing): 221 days
- Best overall response [1, 14]: SD (SD, tumor growth modification between +20% and −30%)
- days of exposure to the MDM2i of formula I [1, 14]: 127 days
- tumor shrinkage ([1]; Arm B patient with p53 wildtype MDM2-amplified pancreatic adenocarcinoma (PAC), partial response): 41%
- tumor shrinkage ([1]; DDLPS patient, 45 mg, second line therapy, for 709 days): approx. 5%
- tumor shrinkage ([1]; DDLPS patient, 45 mg, third line therapy, for 353 days): approx. 10%
- Disease control, % of patients ([1]; arm A (29 treated)): (75.9) %
- Disease control, number of patients ([1]; arm A (29 treated)): 22
- Partial response, number of patients ([1]; arm A (29 treated)): 3
- Progressive disease, % of patients ([1]; arm A (29 treated)): (20.7) %
- Progressive disease, number of patients ([1]; arm A (29 treated)): 6
- Stable disease, number of patients ([1]; arm A (29 treated)): 19
- Disease control, % of patients ([1]; arm B (25 treated)): (68) %
- Disease control, number of patients ([1]; arm B (25 treated)): 17
- Partial response, number of patients ([1]; arm B (25 treated)): 2
- Progressive disease, % of patients ([1]; arm B (25 treated)): (20) %
- Progressive disease, number of patients ([1]; arm B (25 treated)): 5
- Stable disease, number of patients ([1]; arm B (25 treated)): 15
- Disease control, % of patients ([1]; both arms (54 treated)): (72) %
- Disease control, number of patients ([1]; both arms (54 treated)): 39
- Partial response, number of patients ([1]; both arms (54 treated)): 5
- Progressive disease, % of patients ([1]; both arms (54 treated)): (20.3) %
- Progressive disease, number of patients ([1]; both arms (54 treated)): 11
- Stable disease, number of patients ([1]; both arms (54 treated)): 34
- approximate median PFS ([1]; eleven dedifferentiated liposarcoma (DDLPS) patients): around 10.8 months
- patients with partial response ([1]; of seven well differentiated liposarcoma (WDLPS) patients): three
- duration of response ([1]; one patient in Arm A): more than 2 years
- patients with confirmed partial response (PR) (tumors; double combination with 240 mg ezabenlimab D1 q3w, nine evaluable patients): four
- patients with confirmed partial response (PR) (tumors; double combination, 30 mg + 240 mg ezabenlimab D1 q3w): one
- patients with unconfirmed PR (tumors; double combination, 30 mg + 240 mg ezabenlimab D1 q3w, adenocarcinoma): one
- patients with confirmed partial response (PR) (tumors; double combination, 45 mg + 240 mg ezabenlimab D1 q3w): three
- patients with stable disease (tumors; double combination, nine evaluable patients): Four
- Confirmed partial response, % of patients (tumors; [15]): (9.1) %
- Confirmed partial response, number of patients (tumors; [15]): 1
- Disease control, % of patients (tumors; [15]): (72.5) %
- Disease control, number of patients (tumors; [15]): 8
- Progressive disease, % of patients (tumors; [15]): (18.2) %
- Progressive disease, number of patients (tumors; [15]): 2
- Stable disease, number of patients (tumors; [15]): 7
- Unconfirmed partial response, % of patients (tumors; [15]): (9.1) %
- Unconfirmed partial response, number of patients (tumors; [15]): 1
- Partial Responses (PRs), number (tumors; triple combination, MDM2-amplified liposarcoma and MDM2-amplified urothelial carcinoma patient): 2
